Converted amounts (≈) assume the structure as drawn. Like-named read-outs stand apart in the source and are kept apart here.
What was measured:
[1] = One-photon excitation (1PE) photolysis with 365 nm LED, HPLC quantification; type: physicochemical; conditions: for t90% (time required to consume 90% of the starting material): 1PE 365 nm LED, lamp intensity differs per compound (Table S1)
Description: A 0.1 mM solution (3 mL) of each protected phenol in KMOPS buffer (10 or 20% CH3CN was used as a cosolvent for 3d and 6c) was placed in a 3 mL quartz cuvette along with a stirring bar. The solution was irradiated with stirring using a 365 nm LED lamp (Cairn OptoLED Lite). At different time intervals, 80 μL aliquots of the solution were taken out and analyzed by uHPLC (Agilent 1290 Infinity series), monitoring the AUC at 320 nm (Supporting Information, HPLC Data). An external standard calibration method of quantification was used for the calibration of the samples. The experiments were repeated in sets of three. A gradient elution with a flux rate of 0.3 mL/min using a mobile phase comprising A = 0.1% trifluoroacetic acid in water and B = acetonitrile (starting from 5% B to 100% over 10 min and re-equilibrating to 5% B before the next run) was used for the separations. A comparison of the AUC with the calibration curves of the substrates (obtained from known concentration) determined the percentages of the remaining starting materials. The percentages of the remaining starting materials were plotted versus time. The time to 90% of decomposition of the substrate (t90% values) was obtained by fitting a single exponential decay curve to the data using DeltaGraph (Red Rock Software). The following equation was used to calculate the quantum yield (Φu) of each photolysis reaction:[42],[47],[56],[57] Φu = (I σ t90%)^−1, where I is the irradiation intensity (determined by potassium ferrioxalate actinometry and measured in Einstein cm^–2 s^–1),[58] σ is the decadic extinction coefficient (1000 × ε) at 365 nm, and t90% is the time required to consume 90% of the starting material. See Supporting Information Table S1 for the I, σ, and t90% data.

[2] = Spontaneous hydrolysis in the dark; type: physicochemical; conditions: 0.1 mM in KMOPS pH 7.2, dark, 7 days
Description: A 0.1 mM solution of each compound was prepared in KMOPS buffer. For compounds 3d and 6c, 20% CH3CN was used as a cosolvent. The solutions were kept in the dark for 7 days, and the percentage of the starting materials was determined by periodic HPLC analysis (Supporting Information, HPLC Data).

[3] = Solubility in KMOPS buffer pH 7.2; type: physicochemical
Source text: The photochemical and photophysical properties were investigated in a simulated physiological buffer (KMOPS, pH 7.2) and compared with the literature data for CyHQ-O-DA (Table 1). […] For this derivative, 10% CH3CN in the buffer was used to ensure complete solubilization for the photochemistry experiments. The spontaneous hydrolysis in the dark was monitored over a period of 7 days and no significant hydrolysis was detected for any of the constructs. The molar absorptivity at the wavelength used for 1PE photolysis (ε365) ranged between 4800 and 5670 M^–1 cm^–1, in line with the values of most CyHQ-based PPGs.
The photochemical behavior of constructs 4–7c was investigated in KMOPS buffer at the concentration of 0.1 mM. Under these conditions, all compounds were soluble except for the VNA analogue 6c, which, because of the lipophilicity of the vanilloid, required 20% CH3CN for full solubilization. The stability toward hydrolysis in the dark was monitored over a week, and no significant decomposition was detected for any probe. All constructs were successfully photolyzed after light exposure, as shown in the time courses of the photolysis reactions (Figure 3). MeO-CyHQ constructs 4c, 6c, and 7c were photoactivated with excellent quantum efficiency and sensitivities, and good chemical yields were obtained by monitoring the appearance of the released bioeffector over the time course of the photoreaction (Table 1). […] We believe this effect is due to the presence of the thiophene ring, a well-known photoactive group,[51] which could act as an energy sink in the excited state and quench the photochemical reaction.

[4] = UV-vis spectra and molar extinction coefficient in KMOPS buffer; type: physicochemical; conditions: 0.1 mM in KMOPS buffer, pH 7.2 (3d, 6c: 10 or 20% CH3CN added)
Description: A 100 μM solution of each protected phenol was prepared in KMOPS buffer (20% CH3CN was used as a cosolvent for compounds 3d and 6c). The UV–vis spectra of these solutions were recorded at between 250 and 500 nm. All of the measurements were repeated in triplicate, and the absorbance values were averaged. The Beer–Lambert law, ε = A(cl)^−1, was used for the calculation of ε values at λ = 365 nm, where A is the absorbance value measured at 365 nm, c is the concentration of the sample, and l is the cuvette length (1 cm). See the Supporting Information for the spectra.

TRPV1 channels = biological target: T1, TRPV1 channels (Homo sapiens, UniProt Q8NER1); experiment: TRPV1 activation on HEK 293 cells, Fluo-4 calcium imaging; type: cell-based
T1 construct: expressed in transfected cells
Description: HCT 116 cells were grown in Dulbecco’s […] medium (DMEM) supplemented with 10% fetal bovine serum (FBS), 1% nonessential amino acids (NEAA), and maintained at 37 °C and 5% CO2. HEK 293 cells stably expressing TRPV1 channels were grown as previously described.[62]
HEK 293 cells (stably expressing TRPV1 channels) were plated on a 35 mm glass-bottom dish (previously coated with poly-D-Lysine) a day before the experiment. A mixture of pluronic F-127 (Molecular Probes) and Fluo-4 AM (50 μg, Life Technologies) dissolved in dimethylsulfoxide (DMSO) (50 μL) was added to Hank’s balanced salt solution (HBSS) and sonicated for 5 min to prepare a solution containing a 0.02% final concentration of each. The solution was then loaded onto the cells growing in the 35 mm glass-bottom dish and incubated for 35–45 min in a humidified CO2 incubator (37 °C, 5% CO2). The cells were washed with HBSS (3 × 2 mL each) and subsequently maintained in HBSS during photoactivation experiments.
An Olympus FluoView FV1000MPE confocal microscope was employed to image and record cells plated onto 35 mm glass-bottom 4-well plates. A 488 nm ion laser excited the dopamine and serotonin sensors dLight 1.2 and GRAB5-HT, respectively, and Fluo-4 calcium dye. FluoView 10-ASW version 4.0 (Olympus), ImageJ-Fiji, and DeltaGraph (Red Rock Software) were used for capturing, extracting, and processing the collected data. Photoactivation was conducted with 405 nm (100% laser power, 1PE) or 720 nm (10% laser power, 24 mW, 2PE) light for MeO-CyHQ-O-DA and MeO-CyHQ-O-5HT or 740 nm (20% laser power, 15 mW light) for MeO-CyHQ-O-VNA and MeO-CyHQ-O-EG. Images were captured by using a 60× immersion lens.
Solutions of MeO-CyHQ-O-VNA or MeO-CyHQ-O-EG were added to HEK 293 cells stably expressing TRPV1 channels and loaded with Fluo-4 in a 35 mm glass-bottom dish. An area near a cell was irradiated with a single short pulse of 405 nm laser light while imaging with the 488 nm laser. Similarly, VNA and eugenol were released through 2PE using 740 nm light.

[5] = HEK 293 cells expressing TRPV1, exposure to 740 nm light, data not shown

T1 sequence (Q8NER1 whole entry): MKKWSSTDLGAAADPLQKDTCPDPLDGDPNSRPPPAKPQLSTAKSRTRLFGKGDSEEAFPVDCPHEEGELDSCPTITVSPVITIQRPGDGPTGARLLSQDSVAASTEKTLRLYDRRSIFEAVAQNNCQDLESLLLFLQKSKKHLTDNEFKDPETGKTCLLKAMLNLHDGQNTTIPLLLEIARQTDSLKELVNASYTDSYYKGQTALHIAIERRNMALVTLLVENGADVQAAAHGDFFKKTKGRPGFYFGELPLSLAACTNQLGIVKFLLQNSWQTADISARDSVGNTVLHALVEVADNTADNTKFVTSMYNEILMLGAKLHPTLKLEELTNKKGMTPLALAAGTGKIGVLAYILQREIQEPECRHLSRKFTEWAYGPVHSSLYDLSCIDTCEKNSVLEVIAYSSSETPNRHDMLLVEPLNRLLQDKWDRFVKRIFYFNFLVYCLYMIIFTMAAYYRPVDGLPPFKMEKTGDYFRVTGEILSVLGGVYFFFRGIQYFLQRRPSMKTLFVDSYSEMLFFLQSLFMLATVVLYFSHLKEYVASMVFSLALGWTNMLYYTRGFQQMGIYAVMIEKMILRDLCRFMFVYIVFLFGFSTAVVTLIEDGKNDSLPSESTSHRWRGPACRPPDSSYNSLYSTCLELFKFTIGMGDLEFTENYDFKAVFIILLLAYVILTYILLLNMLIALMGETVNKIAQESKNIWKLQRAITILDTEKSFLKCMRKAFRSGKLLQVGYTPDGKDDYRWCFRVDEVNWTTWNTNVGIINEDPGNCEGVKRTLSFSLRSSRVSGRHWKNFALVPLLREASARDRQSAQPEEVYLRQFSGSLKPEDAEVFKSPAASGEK

Cc1cc(COc2cc(CCN)ccc2O)nc2c(C#N)c(O)ccc12.O=C(O)C(F)(F)F [3a, 2-(3-((8-Cyano-7-hydroxy-4-methylquinolin-2-yl)methoxy)-4-hydroxyphenyl)ethan-1-aminium 2,2,2-trifluoroacetate]
t90% (time required to consume 90% of the starting material) [1]: 28.0 s
τd (time constant of spontaneous hydrolysis in buffer in the dark at room temperature) [2]: nh (No hydrolysis (<5% detected after 7 days))
solubility ([3]; aqueous buffer, KMOPS buffer, pH 7.2, read-out: solubility): > 100 µM
ε365 [4]: 5000 M^–1 cm^–1
λmax [4]: 365 nm

N#Cc1c(O)ccc2c(N3CCOCC3)cc(COc3cc(CCN)ccc3O)nc12.O=C(O)C(F)(F)F [3b, 2-(3-((8-Cyano-7-hydroxy-4-morpholinoquinolin-2-yl)methoxy)-4-hydroxyphenyl)ethan-1-aminium 2,2,2-trifluoroacetate]
t90% (time required to consume 90% of the starting material) [1]: 23.2 s
irradiation time to complete the 1PE photolysis reaction ([1]; 365 nm): less than 1 min
τd (time constant of spontaneous hydrolysis in buffer in the dark at room temperature) [2]: nh (No hydrolysis (<5% detected after 7 days))
solubility ([3]; pH 7.2, aqueous buffer): > 100 µM
ε365 [4]: 4900 M^–1 cm^–1
λmax [4]: 358 nm

Cc1ccc(-c2cc(COc3cc(CCN)ccc3O)nc3c(C#N)c(O)ccc23)cc1.O=C(O)C(F)(F)F [3d, 2-(3-((8-Cyano-7-hydroxy-4-(p-tolyl)quinolin-2-yl)methoxy)-4-hydroxyphenyl)ethan-1-aminium 2,2,2-trifluoroacetate]
t90% (time required to consume 90% of the starting material) [1]: 76.7 s
τd (time constant of spontaneous hydrolysis in buffer in the dark at room temperature) [2]: nh (No hydrolysis (<5% detected after 7 days))
solubility ([3]; pH 7.2): slightly lower solubility
solubility ([3]; pH 7.2, aqueous buffer): 85 µM
ε365 [4]: 4800 M^–1 cm^–1
λmax [4]: 372 nm

COc1cc(-c2cc(COc3cc(CCN)ccc3O)nc3c(C#N)c(O)ccc23)cc(OC)c1OC.O=C(O)C(F)(F)F [3e, 2-(3-((8-Cyano-7-hydroxy-4-(3,4,5-trimethoxyphenyl)quinolin-2-yl)methoxy)-4-hydroxyphenyl)ethan-1-aminium 2,2,2-trifluoroacetate]
t90% (time required to consume 90% of the starting material) [1]: 188.7 s
τd (time constant of spontaneous hydrolysis in buffer in the dark at room temperature) [2]: nh (No hydrolysis (<5% detected after 7 days))
solubility ([3]; pH 7.2, aqueous buffer): > 100 µM
ε365 [4]: 5210 M^–1 cm^–1
λmax [4]: 372 nm

CCCN(CCc1cccs1)[C@@H]1CCc2c(cccc2OCc2cc(OC)c3ccc(O)c(C#N)c3n2)C1 [5c, (R)-7-Hydroxy-4-methoxy-2-(((6-(propyl(2-(thiophen-2-yl)ethyl)amino)-5,6,7,8-tetrahydronaphthalen-1-yl)oxy)methyl)quinoline-8-carbonitrile]
t90% (time required to consume 90% of the starting material) [1]: 143.9 s
τd (time constant of spontaneous hydrolysis in buffer in the dark at room temperature) [2]: nh (No hydrolysis (<5% detected after 7 days))
solubility ([3]; pH 7.2, aqueous buffer): > 100 µM
ε365 [4]: 2300 M^–1 cm^–1
λmax [4]: 343 nm

CCCCCCCCC(=O)NCc1ccc(OCc2cc(OC)c3ccc(O)c(C#N)c3n2)c(OC)c1 [6c, N-(4-((8-Cyano-7-hydroxy-4-methoxyquinolin-2-yl)methoxy)-3-methoxybenzyl)nonanamide]
t90% (time required to consume 90% of the starting material) [1]: 23.1 s
τd (time constant of spontaneous hydrolysis in buffer in the dark at room temperature) [2]: nh (No hydrolysis (<5% detected after 7 days))
solubility ([3]; pH 7.2, aqueous buffer): 77 µM (≈ 38.9 µg/mL)
Fluo-4 calcium response after photoactivation (1PE) (TRPV1 channels; HEK 293 cells expressing TRPV1, 2.5 μM, 50 ms pulse of 405 nm light): robust response
Fluo-4 calcium response after photoactivation (2PE) (TRPV1 channels; HEK 293 cells expressing TRPV1, 5 μM, 250 ms pulse of 740 nm light): robust response
ε365 [4]: 3375 M^–1 cm^–1
λmax [4]: 341 nm

C=CCc1ccc(OCc2cc(OC)c3ccc(O)c(C#N)c3n2)c(OC)c1 [7c, 2-((4-Allyl-2-methoxyphenoxy)methyl)-7-hydroxy-4-methoxyquinoline-8-carbonitrile]
t90% (time required to consume 90% of the starting material) [1]: 19.5 s
τd (time constant of spontaneous hydrolysis in buffer in the dark at room temperature) [2]: nh (No hydrolysis (<5% detected after 7 days))
solubility ([3]; pH 7.2, aqueous buffer): > 100 µM
Fluo-4 calcium response after photoactivation (1PE) (TRPV1 channels; HEK 293 cells expressing TRPV1, 5 μM, 500 ms pulse of 405 nm light): EG was released
Fluo-4 calcium response after photoactivation (2PE) (TRPV1 channels; HEK 293 cells expressing TRPV1, 5 μM, 500 ms pulse of 740 nm light): sufficient response
ε365 [4]: 7540 M^–1 cm^–1
λmax [4]: 351 nm

C=CCc1ccc(OCc2ccc3ccc(O)c(C#N)c3n2)c(OC)c1 [CyHQ-EG, reference compound]
Fluo-4 calcium response after photoactivation (2PE) (TRPV1 channels; [5]): did not induce any response

CCCCCCCCC(=O)NCc1ccc(OCc2ccc3ccc(O)c(C#N)c3n2)c(OC)c1 [CyHQ-VNA, reference compound]
Fluo-4 calcium response after photoactivation (2PE) (TRPV1 channels; [5]): did not induce any response

CCCCCCCCC(=O)NCc1ccc(O)c(OC)c1 [VNA, N-vanillyl-nonanoylamide, reference compound]
relative potency as activator of TRPV1 channels (VNA versus EG) (TRPV1 channels; inferred from concentration and pulse duration needed for release, 405 nm): more potent activator of TRPV1 channels

Reference: paper PMC10704561, “Multi-Photon-Sensitive Chromophore for the Photorelease of Biologically Active Phenols” (ACS Chemical Neuroscience, 2023)
